Biological target: T1, recombinant human SIRT1 (Homo sapiens, UniProt Q96EB6)
T1 construct: purchased R&D Systems, Biotechne
T1 sequence (Q96EB6 1-747): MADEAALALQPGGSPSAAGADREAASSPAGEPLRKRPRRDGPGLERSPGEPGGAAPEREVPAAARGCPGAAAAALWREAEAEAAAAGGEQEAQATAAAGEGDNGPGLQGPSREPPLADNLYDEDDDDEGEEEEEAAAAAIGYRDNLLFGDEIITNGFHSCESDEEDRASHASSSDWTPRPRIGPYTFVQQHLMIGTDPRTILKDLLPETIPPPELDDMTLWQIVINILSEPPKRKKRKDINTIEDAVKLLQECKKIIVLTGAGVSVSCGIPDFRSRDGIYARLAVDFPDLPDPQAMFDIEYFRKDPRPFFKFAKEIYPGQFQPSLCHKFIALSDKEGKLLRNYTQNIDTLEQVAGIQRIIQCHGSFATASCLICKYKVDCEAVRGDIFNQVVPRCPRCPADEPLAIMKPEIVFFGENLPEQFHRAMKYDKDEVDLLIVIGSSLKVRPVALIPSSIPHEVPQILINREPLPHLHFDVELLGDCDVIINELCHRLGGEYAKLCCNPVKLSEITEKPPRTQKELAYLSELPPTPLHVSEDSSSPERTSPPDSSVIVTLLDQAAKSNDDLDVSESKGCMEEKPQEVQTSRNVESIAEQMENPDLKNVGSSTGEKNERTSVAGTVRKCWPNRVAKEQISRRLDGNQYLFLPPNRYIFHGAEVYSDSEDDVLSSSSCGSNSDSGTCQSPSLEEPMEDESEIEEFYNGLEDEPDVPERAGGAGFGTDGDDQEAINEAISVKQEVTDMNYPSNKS
Assay: NAD+-dependent deacetylation bioluminescence assay (SIRT-Glo)
Type: biochemical
Settings: Sirt-Glo luminescence assay, three independent experiments; read-out: IC50, inhibition of deacetylase activity
Protocol: Though SA treatment should prevent IsoK adduct formation on many different protein targets, and many of these proteins could have some impact on lifespan and healthspan, the present inventors determined that there would be specific proteins of particular importance in mediating SA's beneficial effects. Specifically, the present inventors recognized that SIR-2.1 would be one of these “high value targets” for several reasons. […] Recombinant human SIRT1 was incubated with increasing concentrations of synthetically pure IsoK, and enzymatic deacetylase activity was assessed using the luminescence based Sirt-Glo assay (Promega).
Relative activity of the NAD+-dependent histone deacetylase (HDAC) class III enzymes (sirtuins) was measured using the SIRT-Glo™ Assay and Screening System (Promega Corporation, Madison, Wis.) according to the manufacturer's instructions with minor modifications. […] Deacetylation of the peptide substrate is measured using a coupled enzymatic system with a protease in the reagent provided and then cleaves the luminogenic peptide to liberate aminoluciferin. Free aminoluciferin can be quantified using the Ultra-Glo™ firefly luciferase reaction to produce a stable, persistent emission of light. […] 15-E2-IsoK was synthesized by the method of Armanath et al. Luminescence was detected by a microplate reader (FLUOstar Optima microplate reader, BMG Labtechnologies).

- IC50: 97.8 µM
Substance: 15-E2-IsoK
